Laboratory results reported in ChEMBL document CHEMBL1201862, “PubChem BioAssay data set” (2004).
Active and inactive are the calls of the source.

Experiments:
[1] = target: T1, Histone-lysine N-methyltransferase NSD2 (Homo sapiens, UniProt O96028); format: biochemical
T1 sequence (O96028 whole entry): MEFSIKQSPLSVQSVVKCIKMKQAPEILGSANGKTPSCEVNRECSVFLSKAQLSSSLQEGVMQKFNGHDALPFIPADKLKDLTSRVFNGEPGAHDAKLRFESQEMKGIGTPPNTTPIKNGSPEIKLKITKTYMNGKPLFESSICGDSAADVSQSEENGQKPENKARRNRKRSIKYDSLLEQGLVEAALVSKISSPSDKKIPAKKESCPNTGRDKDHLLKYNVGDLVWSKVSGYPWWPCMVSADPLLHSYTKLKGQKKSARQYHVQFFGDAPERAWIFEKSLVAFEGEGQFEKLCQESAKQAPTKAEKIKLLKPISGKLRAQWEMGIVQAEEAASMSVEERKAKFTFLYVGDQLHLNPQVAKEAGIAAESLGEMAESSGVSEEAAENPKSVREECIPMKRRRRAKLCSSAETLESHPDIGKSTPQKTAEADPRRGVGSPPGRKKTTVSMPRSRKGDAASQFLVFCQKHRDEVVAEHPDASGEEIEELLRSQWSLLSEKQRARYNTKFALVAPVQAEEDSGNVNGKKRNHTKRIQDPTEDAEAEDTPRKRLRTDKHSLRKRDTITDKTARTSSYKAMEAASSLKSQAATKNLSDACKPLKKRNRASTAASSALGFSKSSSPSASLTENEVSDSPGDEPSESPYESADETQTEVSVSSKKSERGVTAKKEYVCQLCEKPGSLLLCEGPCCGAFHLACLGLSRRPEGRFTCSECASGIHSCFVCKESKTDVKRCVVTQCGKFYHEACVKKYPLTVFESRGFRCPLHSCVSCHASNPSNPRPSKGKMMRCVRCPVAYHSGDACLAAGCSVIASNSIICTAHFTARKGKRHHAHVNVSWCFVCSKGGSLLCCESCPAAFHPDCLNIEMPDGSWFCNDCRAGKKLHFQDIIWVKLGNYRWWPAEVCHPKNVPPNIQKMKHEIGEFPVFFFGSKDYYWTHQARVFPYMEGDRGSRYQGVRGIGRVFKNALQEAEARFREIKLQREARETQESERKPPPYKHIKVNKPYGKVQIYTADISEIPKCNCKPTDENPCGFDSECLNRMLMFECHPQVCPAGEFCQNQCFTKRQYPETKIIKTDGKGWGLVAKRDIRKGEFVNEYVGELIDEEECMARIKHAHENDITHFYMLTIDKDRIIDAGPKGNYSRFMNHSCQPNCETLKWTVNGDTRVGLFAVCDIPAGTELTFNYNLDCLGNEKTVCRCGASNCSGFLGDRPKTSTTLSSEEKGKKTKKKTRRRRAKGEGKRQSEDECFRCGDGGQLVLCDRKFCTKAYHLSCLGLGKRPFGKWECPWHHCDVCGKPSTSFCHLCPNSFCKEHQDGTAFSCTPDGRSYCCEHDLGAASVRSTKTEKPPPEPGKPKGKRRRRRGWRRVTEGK

[2] = target: T2, Replicative DNA helicase DnaB (Mycobacterium tuberculosis, UniProt P9WMR3); assay: DnaB intein splicing inhibitors, dose response, biochemical, cell-free fluorescence (AID 449749); format: functional
T2 sequence (P9WMR3 whole entry): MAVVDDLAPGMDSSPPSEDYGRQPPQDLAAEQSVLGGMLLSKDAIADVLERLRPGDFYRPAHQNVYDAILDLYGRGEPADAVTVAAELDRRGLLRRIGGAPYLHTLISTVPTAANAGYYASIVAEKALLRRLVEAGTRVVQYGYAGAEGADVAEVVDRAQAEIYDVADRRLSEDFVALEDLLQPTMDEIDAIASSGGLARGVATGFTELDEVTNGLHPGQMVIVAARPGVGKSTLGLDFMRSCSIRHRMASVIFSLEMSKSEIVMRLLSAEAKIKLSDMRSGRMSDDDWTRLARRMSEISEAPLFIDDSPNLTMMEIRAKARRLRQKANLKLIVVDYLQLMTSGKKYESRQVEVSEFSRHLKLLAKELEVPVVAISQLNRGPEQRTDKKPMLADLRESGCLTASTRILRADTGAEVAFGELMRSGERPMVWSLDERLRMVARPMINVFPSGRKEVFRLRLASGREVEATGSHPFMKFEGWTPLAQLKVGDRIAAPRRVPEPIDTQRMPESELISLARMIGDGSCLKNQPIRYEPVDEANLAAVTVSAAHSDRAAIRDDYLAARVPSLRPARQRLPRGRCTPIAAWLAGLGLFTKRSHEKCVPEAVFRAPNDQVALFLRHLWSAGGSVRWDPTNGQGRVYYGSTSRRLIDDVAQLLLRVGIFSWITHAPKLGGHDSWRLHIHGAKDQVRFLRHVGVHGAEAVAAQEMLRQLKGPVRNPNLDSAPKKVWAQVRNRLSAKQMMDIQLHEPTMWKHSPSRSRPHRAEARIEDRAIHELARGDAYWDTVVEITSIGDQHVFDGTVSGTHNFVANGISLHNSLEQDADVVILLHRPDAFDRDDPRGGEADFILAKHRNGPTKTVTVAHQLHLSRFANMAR

[3] = target: T3, Alkaline phosphatase, tissue-nonspecific isozyme (Homo sapiens, UniProt P05186); assay: TNAP enzyme inhibition by screening hits, dose response, selectivity assay for mouse IAP inhibitor project, biochemical, human TNAP, uHTS hits (AID 488906); format: functional
T3 sequence (P05186 whole entry): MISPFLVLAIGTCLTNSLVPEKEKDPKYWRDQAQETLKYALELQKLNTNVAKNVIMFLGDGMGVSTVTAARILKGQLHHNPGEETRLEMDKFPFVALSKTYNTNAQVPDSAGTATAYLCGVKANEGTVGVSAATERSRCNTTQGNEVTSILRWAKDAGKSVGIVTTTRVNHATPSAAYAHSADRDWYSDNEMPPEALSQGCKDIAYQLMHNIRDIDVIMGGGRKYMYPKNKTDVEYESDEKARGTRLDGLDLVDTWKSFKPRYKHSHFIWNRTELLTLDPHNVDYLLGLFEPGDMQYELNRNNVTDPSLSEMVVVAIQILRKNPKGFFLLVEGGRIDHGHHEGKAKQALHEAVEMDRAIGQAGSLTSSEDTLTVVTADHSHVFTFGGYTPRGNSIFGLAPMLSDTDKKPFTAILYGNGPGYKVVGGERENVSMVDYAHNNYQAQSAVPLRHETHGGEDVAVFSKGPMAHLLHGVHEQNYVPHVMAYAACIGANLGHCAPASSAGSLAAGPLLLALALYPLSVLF

[4] = target: Tyrosine-protein kinase JAK2 (Homo sapiens, UniProt O60674); format: functional;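 further: JAK2 tested as one member of a kinase panel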
Tyrosine-protein kinase JAK2, sequence (O60674 whole entry): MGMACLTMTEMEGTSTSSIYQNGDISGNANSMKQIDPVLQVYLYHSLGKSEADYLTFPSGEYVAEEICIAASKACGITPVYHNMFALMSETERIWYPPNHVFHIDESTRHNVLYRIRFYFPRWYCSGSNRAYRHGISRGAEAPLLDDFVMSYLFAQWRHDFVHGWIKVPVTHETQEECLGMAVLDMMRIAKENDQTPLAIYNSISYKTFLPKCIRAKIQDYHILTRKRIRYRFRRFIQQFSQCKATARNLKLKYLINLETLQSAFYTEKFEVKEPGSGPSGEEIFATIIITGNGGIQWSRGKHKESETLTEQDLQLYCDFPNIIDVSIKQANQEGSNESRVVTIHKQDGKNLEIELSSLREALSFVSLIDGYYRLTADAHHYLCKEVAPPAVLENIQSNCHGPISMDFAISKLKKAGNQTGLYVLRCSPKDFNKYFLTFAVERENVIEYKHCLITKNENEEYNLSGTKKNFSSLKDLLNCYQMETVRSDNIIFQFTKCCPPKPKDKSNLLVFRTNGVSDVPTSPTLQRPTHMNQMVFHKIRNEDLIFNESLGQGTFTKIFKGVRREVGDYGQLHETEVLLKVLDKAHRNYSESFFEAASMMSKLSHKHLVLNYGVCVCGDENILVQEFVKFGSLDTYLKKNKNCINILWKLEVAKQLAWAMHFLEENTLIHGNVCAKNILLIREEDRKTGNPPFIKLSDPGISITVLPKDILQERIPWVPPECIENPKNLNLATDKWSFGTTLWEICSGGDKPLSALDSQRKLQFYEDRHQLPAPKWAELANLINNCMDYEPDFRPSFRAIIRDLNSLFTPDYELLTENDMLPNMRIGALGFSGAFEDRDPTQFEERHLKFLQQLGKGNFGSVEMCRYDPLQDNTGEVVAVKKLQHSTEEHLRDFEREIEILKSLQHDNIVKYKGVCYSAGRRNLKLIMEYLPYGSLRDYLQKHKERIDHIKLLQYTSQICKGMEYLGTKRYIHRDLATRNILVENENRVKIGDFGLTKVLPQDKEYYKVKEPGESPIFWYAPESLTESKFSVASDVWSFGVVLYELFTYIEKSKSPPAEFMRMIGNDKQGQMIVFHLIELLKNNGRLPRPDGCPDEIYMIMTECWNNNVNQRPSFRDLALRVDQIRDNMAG

[5] = target: Tyrosine-protein kinase JAK3 (Homo sapiens, UniProt P52333); format: functional
Tyrosine-protein kinase JAK3, sequence (P52333 whole entry): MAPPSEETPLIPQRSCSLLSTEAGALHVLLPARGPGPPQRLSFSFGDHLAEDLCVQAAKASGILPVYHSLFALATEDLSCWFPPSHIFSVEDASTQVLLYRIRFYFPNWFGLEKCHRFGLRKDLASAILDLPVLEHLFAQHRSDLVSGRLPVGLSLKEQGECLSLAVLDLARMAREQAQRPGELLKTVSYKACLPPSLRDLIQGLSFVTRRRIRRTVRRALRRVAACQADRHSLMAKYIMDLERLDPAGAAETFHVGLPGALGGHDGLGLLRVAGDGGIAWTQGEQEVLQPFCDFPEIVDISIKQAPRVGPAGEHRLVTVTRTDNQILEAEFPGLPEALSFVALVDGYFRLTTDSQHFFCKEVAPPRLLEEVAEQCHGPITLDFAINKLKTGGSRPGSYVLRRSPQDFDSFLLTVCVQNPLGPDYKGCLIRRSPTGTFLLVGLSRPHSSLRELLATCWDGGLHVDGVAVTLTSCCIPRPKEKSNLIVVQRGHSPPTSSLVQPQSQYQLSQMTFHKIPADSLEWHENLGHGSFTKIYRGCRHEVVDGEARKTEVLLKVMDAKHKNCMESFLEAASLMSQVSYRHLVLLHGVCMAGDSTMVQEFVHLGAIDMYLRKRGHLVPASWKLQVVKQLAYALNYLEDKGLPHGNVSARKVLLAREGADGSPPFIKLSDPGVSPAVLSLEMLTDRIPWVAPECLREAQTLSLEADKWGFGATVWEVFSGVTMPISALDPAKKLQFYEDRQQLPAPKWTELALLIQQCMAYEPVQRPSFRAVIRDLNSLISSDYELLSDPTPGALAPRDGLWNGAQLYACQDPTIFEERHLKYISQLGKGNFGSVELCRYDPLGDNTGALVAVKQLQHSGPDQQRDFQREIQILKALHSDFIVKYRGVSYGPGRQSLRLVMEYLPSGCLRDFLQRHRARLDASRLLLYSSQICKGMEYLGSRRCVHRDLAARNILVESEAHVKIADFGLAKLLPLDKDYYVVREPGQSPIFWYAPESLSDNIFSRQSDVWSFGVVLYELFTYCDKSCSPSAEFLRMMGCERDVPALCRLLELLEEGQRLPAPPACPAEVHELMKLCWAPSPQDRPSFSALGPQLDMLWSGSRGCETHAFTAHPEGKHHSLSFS

[6] = target: Glycogen synthase kinase-3 alpha (Homo sapiens, UniProt P49840); format: functional;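 further: GSK3A result taken from a broad kinome-wide kinase panel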
Glycogen synthase kinase-3 alpha, sequence (P49840 whole entry): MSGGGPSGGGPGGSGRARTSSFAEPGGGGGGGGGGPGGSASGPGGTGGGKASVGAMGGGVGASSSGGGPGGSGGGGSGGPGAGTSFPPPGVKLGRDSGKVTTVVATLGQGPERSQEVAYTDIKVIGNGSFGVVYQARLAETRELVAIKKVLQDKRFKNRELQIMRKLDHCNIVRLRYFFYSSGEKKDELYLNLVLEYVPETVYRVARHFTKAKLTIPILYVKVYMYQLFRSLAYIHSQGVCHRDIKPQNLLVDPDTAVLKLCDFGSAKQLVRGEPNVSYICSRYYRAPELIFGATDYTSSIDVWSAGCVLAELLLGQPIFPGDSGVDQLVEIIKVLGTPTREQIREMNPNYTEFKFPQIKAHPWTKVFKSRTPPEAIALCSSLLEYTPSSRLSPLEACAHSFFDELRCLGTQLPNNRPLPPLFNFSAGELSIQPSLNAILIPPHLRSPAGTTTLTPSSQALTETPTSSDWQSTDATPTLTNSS

[7] = target: Serine/threonine-protein kinase pim-2 (Homo sapiens, UniProt Q9P1W9); format: functional;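 further: value comes from a broad kinase panel profiling study in which PIM2 was one of the panel members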
Serine/threonine-protein kinase pim-2, sequence (Q9P1W9 whole entry): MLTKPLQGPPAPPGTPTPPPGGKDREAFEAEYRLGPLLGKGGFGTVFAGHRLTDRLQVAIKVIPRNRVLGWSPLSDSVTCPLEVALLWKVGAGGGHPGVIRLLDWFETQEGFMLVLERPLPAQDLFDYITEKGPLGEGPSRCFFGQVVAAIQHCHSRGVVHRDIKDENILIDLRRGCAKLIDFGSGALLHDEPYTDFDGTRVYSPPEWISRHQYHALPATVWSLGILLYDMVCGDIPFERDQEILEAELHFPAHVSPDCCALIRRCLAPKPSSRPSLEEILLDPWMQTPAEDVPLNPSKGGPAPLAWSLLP

With `Cc1ccc2[nH]c(/C(C#N)=C/c3ccc(O)c(O)c3)nc2c1` the AC50 [1] was 4.37 µM (active).

With `COC(=O)C1CN(C#N)N(c2ccc(Cl)cc2)C12c1ccccc1-c1ccccc12` (configuration not stated) the AC50 [2] was 3.16 µM (active).

For `O=C(NN1C(=O)CSC1=S)C(=O)NN1C(=O)CSC1=S`, the IC50 [3] was > 100 µM (inactive).

For `Nc1noc2cccc(-c3cccc(O)c3)c12`, the Ki [4] was > 1.58 µM (inactive), the Ki [5] was > 1.58 µM (inactive) and the Ki [6] was > 50.1 µM (inactive). For the same compound, the Ki [7] was > 1.58 µM (inactive).
